In a melting point compilation (Tetko et al.; mined from patent text by program, amines drawn as free bases though some values may be those of a salt):

Row | melting point [°C] | Compound
1 | 247 to 250 | O=[N+]([O-])c1ccc(CO)c(Nc2nccc(-c3cccnc3)n2)c1
2 | 151 to 152 | CC(C)N1CC2(COc3ccc([N+](=O)[O-])cc3OC2)OC1c1ccccc1 (configuration not stated)
3 | 137 to 140 | Cc1ccc2c(c1)CC(=O)N2c1c(F)cccc1Cl
4 | 230 to 231 | Cc1nc(-c2cccnc2)sc1-c1ccnc(Nc2ccc(N3CCOCC3)c(Cl)c2)n1
5 | 87 to 89 | COC(=O)c1ccc(S(C)(=O)=O)c(-c2ccon2)c1C
6 | 140 to 143 | CN(C)c1ccccc1CS(=O)c1nccn1-c1ccc(N)cn1 (configuration not stated)
7 | 133 | CC(CN1CCCC1)N1c2ccccc2Sc2ccc(C(=O)NCC3CCC3)cc21 (racemic)
8 | 212 | CN(C)C(=O)c1ccc(-c2ccc(NC(=O)Nc3cccc(C(F)(F)F)c3)c(-c3n[nH]c(=O)[nH]3)c2)cc1
9 | 102 to 103 | Brc1ccc2c(c1)/C(=C/CCN1CCCC1)c1cc(Br)ccc1OC2
10 | 116 to 118 | Fc1ccc(C(CCCN2CCN(c3cc4ccccc4cn3)CC2)c2ccc(F)cc2)cc1
11 | 209 to 211 | C=Cc1c(N)cc(-c2ccc(Cl)c(OC)c2F)nc1C(=O)O
12 | 168 to 170 | COP(=O)(Cc1cccc2cccc(CP(=O)(OC)OC)c12)OC
13 | 241 to 243 | CC(C)(C)c1ccc(NS(=O)(=O)c2ccc(N3CCNC3=O)cc2)cc1
14 | 128 to 131 | CC(C)(C)NC(=O)c1ccc(-c2cccc3cncn23)cc1
15 | 119 to 121 | CCC(Oc1c(C(C)C)cccc1C(C)C)C(=O)OC1CC(O)C=C2C=CC(C)C(CCC3CC(O)CC(=O)O3)C21 (mixture of isomers)
16 | 130 to 135 | CC(C)c1cccc(-c2ccc(C(=O)NO)nc2)c1
17 | 173 to 175 | COc1ccc(C2(C)Cc3cc(OCC(=O)O)c(Cl)c(Cl)c3C2=O)cc1 (configuration not stated)
18 | 145 | COc1ccc(Cl)cc1C(=O)NCCc1ccc(-c2ccc(OC(C)C(=O)O)cc2)cc1 (configuration not stated)
19 | 178 to 179 | C=C(CN(C)C)C(O)c1ncc2c(c1O)COC2(C)c1ccccc1 (configuration not stated)
20 | 178 to 182 | O=C(c1ccc(NS(=O)(=O)c2ccccc2)cc1)N1CCCCc2ccccc21

Row | melting point [°C] | Compound
21 | 113 | Cn1c(=S)c(-c2cccs2)nc2ccccc21
22 | 278 to 280 | CCN1Cn2c(=O)cc(-c3cccc(C(F)(F)F)c3)n3cnc(c23)C1=O
23 | 160 to 162 | CCc1cc(C#N)sc1-c1ccc2c(c1)C(C)(C)OC(=O)N2
24 | 192 to 194 | Cc1cc(=O)n2nc(S(=O)(=O)Cc3ccc(Cl)cc3)sc2n1
25 | 163 to 165 | COC1(c2cccc(S(=O)(=O)c3ccc4c(c3)oc(=O)n4C)c2)CCOCC1
26 | 125 to 128 | CC(C)C1=C(Sc2ccccc2)C(c2ccc(F)cc2)=C(C(C)O)C(C(C)C)N1C (configuration not stated)
27 | 124 to 125 | COc1ccc(C(=O)c2ccc(OCc3ccccc3)cc2)c(O)c1
28 | 173 to 175 | CC(C)NCC(O)COc1cccc2c1CC(=O)N2 (configuration not stated)
29 | 184 to 185 | CC(C)(C)OC(=O)N[C@@H](Cc1ccc(-c2ccccc2)cc1)c1nnnn1CCC#N
30 | 84 | CCOC(=O)N1Cc2ccccc2C(Oc2ccc(C(F)(F)F)cc2)C1 (configuration not stated)
31 | 108 to 110 | CC(=O)OC1C(OC(=O)c2cccc([N+](=O)[O-])c2)C=C(C)C(=O)CC1(C)C (configuration not stated)
32 | 145 to 147 | Cc1n[nH]c(C)c1[C@H](C)NC(=O)COc1cc(C(F)(F)F)c2c(-c3ccccc3)nn(C)c2n1
33 | 220 | COc1cc2c(cc1OC)C1(O)c3ccccc3CCN1C2=O (configuration not stated)
34 | 93 to 94 | O=CN1CC2CCCc3cccc1c32 (configuration not stated)
35 | 65 to 70 | O=C(O)CCCCCCNC(=O)C1Cc2ccccc2N1S(=O)(=O)c1ccc(-c2cccc(C(F)(F)F)c2)cc1 (configuration not stated)
36 | 122 to 124 | Cc1cc(=O)n(-c2cc(OC(C)C)c(C)cc2F)c(=O)o1
37 | 293 to 295 | CC(C)(C(=O)O)c1ccc(C(=O)Nc2cn3c4c(ccc3n2)OCC4)cc1
38 | 168 to 170 | CC(C)(C)c1cc(SCC(=O)Nc2c(Cl)cccc2Cl)cc(C(C)(C)C)c1O
39 | 162 | COc1ccc(N(C)C(=O)CN(C(=O)CN2C(=O)c3ccccc3C2=O)c2ccccc2)cc1
40 | 164 to 165 | Cn1c(CC(=O)O)ccc1C(=O)c1ccc(F)cc1

Row | melting point [°C] | Compound
41 | 217 | CCc1ccc2c(c1)C=Cc1cc(C)ccc1C2c1cn(-c2ccnc(NCC(=O)Nc3nc(CC(=O)O)cs3)n2)c(=O)[nH]c1=O (configuration not stated)
42 | 94 to 97 | CC(=O)c1ccc(OCc2ccccc2)c(CS(C)(=O)=O)c1
43 | > 250 | CC(=NO)c1ccc2c(c1)C(=NNc1cccc(S(N)(=O)=O)c1C)C(=O)N2
44 | 257 to 259 | Cc1c(-c2ccc(F)cc2)oc2c(-c3ccc(F)cc3)c(-c3ccc(S(C)(=O)=O)cc3)nn12
45 | 153 to 155 | CN1C(=O)C(C(=O)Nc2ccc(F)cc2)S(=O)(=O)c2cc(F)ccc21 (configuration not stated)
46 | 113 to 116 | Cc1ccc2c(c1)COC21CCN(CCCCCCN2CCC3(CC2)OCc2cc(C)ccc23)CC1
47 | 91 to 93 | CC(C(=O)O)c1ccc2oc(Cc3ccc(F)cc3)nc2c1 (configuration not stated)
48 | 280 to 281 | COc1ccc(Cn2c(=S)[nH]c(=O)c3[nH]c(C(C)C)nc32)cc1OCc1ccccc1
49 | 215 to 216 | NC(=O)c1ccc(C(O)c2c(O)c(=O)ccn2CCO)cc1 (configuration not stated)
50 | 238 | CN(C)NC(=O)Nc1cccc2c1C(=O)c1c-2n[nH]c1-c1ccc(N2CCNCC2)cc1
51 | 141 to 142 | CCOC(=O)c1c(Nc2cc(F)ccc2N)sc2ccccc12
52 | 124 to 126 | CCCc1nn(-c2ccc(C(F)(F)F)cn2)cc1CCCOc1cc(CC(=O)O)ccc1OC
53 | 237 to 238 | CNc1nc(N)nc(-c2ccc(-c3ccccc3)cc2)n1
54 | 274 to 275 | COc1cc(C2=C(c3c[nH]c4cccnc34)C(=O)NC2=O)cc(OC)c1OC
55 | 97 to 98 | COC(=O)c1ccc2sc(C)cc2c1
56 | 150 | Cc1cc(SCc2ccc(OCc3ccccn3)cc2)ccc1OCC(=O)O
57 | 123 to 124 | CS(=O)(=O)Oc1ccc([N+](=O)[O-])c(O)c1
58 | 116 | CC(CCN1CCN(c2ccc(F)cc2)CC1)N1c2cccc3cccc(c23)S1(=O)=O (configuration not stated)
59 | 132 to 133 | O=c1c(-c2ccccc2)c[nH]n1-c1ccccn1

Second part, the compound before the results:

Row | Compound | melting point [°C]
60 | CCOC(=O)CSc1nc2cc([N+](=O)[O-])ccc2[nH]1 | 114
61 | Nc1cc(Br)cc(OCCF)c1 | 48.5 to 50
62 | Cc1nc2cccnc2nc1S(=O)Cc1ccccn1 (configuration not stated) | 120 to 125
63 | O=C(OCC(Cl)(Cl)Cl)N1C2CCC1CC(Sc1ccccc1)C2 (configuration not stated) | 83 to 84.5
64 | COc1ccc(NC(=O)OCCCl)c(OC)c1NC(=O)OCCCl | 105
65 | O=NSC1(C2OCCO2)CCCCC1 | 37 to 39
66 | CC(CC1COC(c2ccc(C(=O)Nc3ccc(C#N)cc3)cc2)OC1)C(O)(Cn1cncn1)c1ccc(F)cc1F (configuration not stated) | 159
67 | CC(C)(C)C(=O)Nc1cc(Cl)ccn1 | 86 to 87
68 | CCCC(CCC)C(=O)NC1CCc2ccccc21 (configuration not stated) | 133 to 134
69 | N#CCc1c(Cl)ccc2cc(Cl)cnc12 | 152
70 | CN(NC(=O)OCc1ccccc1)C(=O)c1cc(OCc2ccccc2)c(OCc2ccccc2)c(CNC(=O)OC(C)(C)C)n1 | 125 to 127
71 | OCC(O)CN1CCN(c2ccc(Cl)nn2)CC1 (configuration not stated) | 126 to 128
72 | CCSc1nccn1-c1ccc(O)cc1 | 165
73 | CCCCCCCCCCNC(=O)C=C(c1ccccc1)c1ccc([N+](=O)[O-])cc1 | 91 to 93
74 | N#Cc1c(Cl)cncc1Cl | 117 to 118
75 | CNC1CC=C(c2c[nH]c3ccc([N+](=O)[O-])cc23)CC1 (configuration not stated) | 208 to 210
76 | O=C(O)c1cc2cc(Cl)ccc2nc1NC(Cc1ccc(Oc2ccc3ccccc3n2)cc1)C(=O)O (configuration not stated) | 136
77 | CCCNc1ncnc2c1ncn2C1CC(F)C(CO)O1 (configuration not stated) | 114 to 115
78 | CC(=O)O[C@@H]1C=C2C=C3C(=C(C)C(=O)N3C)C[C@]2(C)[C@@H](C)[C@H]1O | 50 to 55
79 | CCc1c(CC(C)(C)C(=O)O)ccc2c1OCO2 | 73 to 74
80 | O=CN1CCSc2ccccc2C1 | 84 to 87
81 | CCOC(C)O[C@H]1C(=O)N[C@H]1c1ccccc1 (some centres not stated) | 78 to 80

Row | Compound | melting point [°C]
82 | NCc1ccc([N+](=O)[O-])cc1O | 210 to 215
83 | Cc1nc2c(N)nc3ccccc3c2s1 | 184 to 187
84 | OCC1OC(n2cnc3c(NCCCC(c4ccccc4)c4ccccc4)ncnc32)C(O)C1O (configuration not stated) | 102 to 108
85 | CN(CCN(CCC12CC3CC(CC(C3)C1)C2)C(=O)NCCCc1ccncc1)C(=O)CC(C)(C)C | 101 to 102
86 | Cc1c(C2CCC(c3ccccc3)(N(C)C)CC2)[nH]c2ccc(C#N)cc12 (configuration not stated) | 235 to 240
87 | CC(=O)OCC(N)C(=O)Nn1cccc1 (configuration not stated) | 147 to 148
88 | N#CCNC(=O)Cc1ccccc1 | 87 to 91
89 | CCNC(=O)N1C(=O)[C@H](O)[C@@H]1c1ccccc1 | 141 to 142
90 | On1cc(-c2ccccc2)[nH]c1=S | 196
91 | CCN1CCN(c2c(F)cc3c(=O)c(C(=O)O)cn(CC)c3c2F)CC1 | 236 to 239
92 | CCOC1C(NC(=O)C(F)(F)F)CC(OC)OC1C (configuration not stated) | 183 to 185
93 | CN1C2CCC1CC(O)(c1ccc(Cl)c(Cl)c1)C2 (configuration not stated) | 153 to 154
94 | O=C1CCn2ncnc2N1 | 276 to 280
95 | CCCCCCCCCCCCCCCCCC(=O)NC(=O)OCc1nc(C(C)C)c(Sc2cc(Cl)cc(Cl)c2)n1Cc1ccncc1 | 73 to 77
96 | CC(C)(C)c1ccc2c(c1)CCC(CN1CCCCC1)C2=O (configuration not stated) | 47 to 49
97 | CCCC[C@@H](C)C[C@@H](CC(=O)OC(C)(C)C)C(=O)O | 142 to 143
98 | Cc1ccc2nc(CCl)n3cnnc3c2c1 | 175
99 | CCC(O)(c1ccsc1)c1oc(C)nc1C (configuration not stated) | 81 to 83
100 | CC(C)(O)C#Cc1cccc(N)c1 | 118 to 119
101 | Oc1c(-c2nnn[nH]2)cnc2c(Br)cccc12 | > 260
102 | C=CCC(O)(C(=O)c1ccc(C)cc1)c1ccc(C)cc1 (configuration not stated) | 38 to 40
